This assay deals with murine fibroblasts (NIH3T3) over-expressing human IGF-1 receptor. Description: Inhibition of IGF-stimulated cell proliferation (BrdU incorporation), Test (c). The assay is classed as cell-based. As to conditions: NIH3T3/IGFR cells, IGF-1 20 ng/ml. On the procedure: The construction of murine fibroblasts (NIH3T3) over-expressing human IGF-1 receptor has been described by Lammers et al (EMBO J, 8, 1369-1375, 1989). These cells show a proliferative response to IGF-I which can be measured by BrdU incorporation into newly synthesised DNA. Compound potency was determined as causing inhibition of the IGF-stimulated proliferation in the following assay:
Compounds are initially dissolved in DMSO to 10 mM, followed by dilutions in DMEM+1% FCS+glutamine to give a range from […] in 1-0.00045% DMSO final concentration in assay well.
Exponentially growing NIH3T3/IGFR cells were harvested and seeded in complete growth medium into a flat-bottomed 96 well tissue culture grade plate (Costar 3525) at 1.2×10^4 cells per well in a volume of 100 μl.
Growth medium was carefully removed from each well using a multi-channel pipette. Wells were carefully rinsed three times with 200 μl with HBSS. 100 μl of starvation medium was added to each well and the plate was re-incubated for 24 hours.
50 μl of a 4× concentrate of test compound was added to appropriate wells. Cells were incubated for 30 minutes with compound alone before the addition of IGF. […]
The incorporation of BrdU in the cells (after a 4 h incorporation period) was assessed using the BrdU Cell Proliferation Elisa according to the manufacturer's protocol.
For orientation: Incorporation of labelled thymidine or its analogues reports DNA synthesis.

In general, IC50 refers to the concentration that gives 50% inhibition. A high value points to weaker potency.

In the case of `Cc1cc(Nc2ccccn2)nc(N2CCC[C@H]2c2cc(-c3ccccn3)no2)n1` [Example 1, S-6-Methyl-2-{2-[3-(pyrid-2-yl)isoxazol-5-yl]pyrrolidin-1-yl}-4-(pyrid-2-ylamino)pyrimidine], the IC50 was found to be 310 nM.

For the compound `Cc1ccc(Nc2cc(C)nc(N3CCC[C@H]3c3cc(-c4ccccn4)no3)n2)nc1` [Example 13, S-6-Methyl-2-{2-[3-(pyrid-2-yl)isoxazol-5-yl]pyrrolidin-1-yl}-4-(5-methylpyrid-2-ylamino)pyrimidine], the IC50 amounted to 130 nM.

(Values after US20080171742A1, “4-(Pyrid-2-Yl) Amino Substituted Pyrimidine as Protein Kinase Inhibitors” (AsraZeneca, priority 2005, published 2008).)
